This note sets out measurements from patent US10647675B2 (priority 2015, dated 2020).

The structures appear in SMILES notation. Values after ≈ are worked out from the molar mass of the structure shown.

The subject of assay [1] is Trichophyton rubrum KD-1130. The assay can be described thus: Antifungal activity evaluation test: minimum inhibitory concentration (MIC), broth dilution by reference to CLSI M38-A2. The class given is cell-based. Particulars: KD1130, read-out: MIC (T. rubrum). Put shortly:
(§1)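 MIC read visually as lowest concentration inhibiting growth by at least 80% relative to control after 4 days at 35° C. Trichophyton strains inoculated at 2×10^3 cells/mL final in MOPS-buffered RPMI 1640 (pH 7.0); compounds as 2-fold DMSO series, CLSI M38-A2 basis.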
(In general: In broth dilution the organism is exposed to a series of concentrations in liquid medium.)

The subject of assay [2] is Trichophyton mentagrophytes SM-110. Described as above. Conditions: SM110, read-out: MIC (T. menta.). The format is cell-based. Put shortly:
as §1

For orientation: MIC means the smallest concentration in the dilution series that meets the test's criterion for growth inhibition. With `Cc1noc(-c2cccnc2Oc2ccc(C(C)(F)F)nc2)c1Cl` [I-104, 4-chloro-5-(2-{[6-(1,1-difluoroethyl)pyridin-3-yl]oxy}pyridin-3-yl)-3-methylisoxazole], the MIC in assay [1] and in assay [2] was 0.2 to 0.78 µg/mL (≈ 0.569 to 2.22 µM) each time.
With `COc1cc(F)ccc1-c1cccnc1Oc1cnc(C2(C)CC2)nc1` [I-379, 5-{[3-(4-fluoro-2-methoxyphenyl)pyridin-2-yl]oxy}-2-(1-methylcyclopropyl)pyrimidine], the MIC in assay [1] and in assay [2] was ≤ 0.1 µg/mL in each case.
Turning to `CCc1ccc(Oc2ncccc2-c2cnccc2OC)cc1F` [I-392, 2-(4-ethyl-3-fluorophenoxy)-4′-methoxy-3,3′-bipyridine], the MIC in assay [1] and in assay [2] was ≤ 0.1 µg/mL in each case.
`COc1ccncc1-c1cccnc1Oc1ccc2c(c1)CCC2` [I-266, 2-[(2,3-dihydro-1H-inden-5-yl)oxy]-4′-methoxy-3,3′-bipyridine]: the MIC in assay [1] and in assay [2] was ≤ 0.1 µg/mL throughout.
Consider `Cc1nc(C)c(-c2cccnc2Oc2ccc(C(F)(F)F)cc2)s1` [I-342], for which the MIC in assay [1] and in assay [2] was 0.2 to 0.78 µg/mL (≈ 0.571 to 2.23 µM) each time.
Turning to `COCC(F)(F)c1ccc(Oc2ncccc2-c2cccc3c2OCC3)cn1` [I-166, 2-{[6-(1,1-difluoro-2-methoxyethyl)pyridin-3-yl]oxy}-3-(2,3-dihydrobenzofuran-7-yl)pyridine], the MIC in assay [1] and in assay [2] was ≤ 0.1 µg/mL each time.
On to `COc1cc(F)ccc1-c1cccnc1Oc1cnc(C(F)F)c(C)c1` [I-121, 2-(difluoromethyl)-5-{[3-(4-fluoro-2-methoxyphenyl)pyridin-2-yl]oxy}-3-methylpyridine], for which the MIC in assay [1] and in assay [2] was ≤ 0.1 µg/mL throughout.
As to `COc1c(F)cncc1-c1cccnc1Oc1ccc(C(F)F)cc1` [I-356, 2-[4-(difluoromethyl)phenoxy]-5′-fluoro-4′-methoxy-3,3′-bipyridine], the MIC in assay [1] and in assay [2] was ≤ 0.1 µg/mL in each case.
Consider `FC(F)(F)c1ccc(Oc2ncccc2-c2cccc3c2OCC3)cn1` [I-35, 3-(2,3-dihydrobenzofuran-7-yl)-2-{[6-(trifluoromethyl)pyridin-3-yl]oxy}pyridine], for which the MIC in assay [1] and in assay [2] was ≤ 0.1 µg/mL throughout.
For `O=C1CCc2cccc(-c3cccnc3Oc3ccc(C(F)(F)F)nc3)c21` [I-40, 7-(2-{[6-(trifluoromethyl)pyridin-3-yl]oxy}pyridin-3-yl)-2,3-dihydro-1H-inden-1-one], the MIC in assay [1] and in assay [2] was 0.2 to 0.78 µg/mL (≈ 0.54 to 2.11 µM) throughout.
Turning to `FC(F)(F)c1ccc(Oc2ncccc2-c2cnn3ccccc23)cn1` [I-49, 3-(2-{[6-(trifluoromethyl)pyridin-3-yl]oxy}pyridin-3-yl)-pyrazolo[1,5-a]pryidine], the MIC in assay [1] and in assay [2] was 1.56 to 6.25 µg/mL (≈ 4.38 to 17.5 µM) throughout.
On to `CC(=O)c1ccccc1-c1cccnc1Oc1ccc(C(F)(F)F)nc1` [I-19, 1-[2-(2-{[6-(trifluoromethyl)pyridin-3-yl]oxy}pyridin-3-yl)phenyl]ethanone], for which the MIC in assay [1] and in assay [2] was 1.56 to 6.25 µg/mL (≈ 4.35 to 17.4 µM) each time.
As to `COCC(F)(F)c1ccc(Oc2ncccc2-c2ccc(OC)nc2OC)cn1` [I-460], the MIC in assay [1] and in assay [2] was ≤ 0.1 µg/mL in each case.
Turning to `CCOCC(C)(C)c1ccc(Oc2ncccc2-c2cccnc2OC)cc1` [I-388, 2-[4-(1-ethoxy-2-methylpropan-2-yl)phenoxy]-2′-methoxy-3,3′-bipyridine], the MIC in assay [1] and in assay [2] was ≤ 0.1 µg/mL throughout.
Regarding `CNCC(F)(F)c1ccc(Oc2ncccc2-c2ccccc2OC)cn1` [I-146, 2,2-difluoro-2-(5-{[3-(2-methoxyphenyl)pyridin-2-yl]oxy}-pyridin-2-yl)-N-methylethanamine], the MIC in assay [1] lay in the range of 1.56 to 6.25 µg/mL (≈ 4.2 to 16.8 µM); in assay [2], 0.2 to 0.78 µg/mL (≈ 0.539 to 2.1 µM).
The like results for `Cc1ccncc1-c1cccnc1Oc1ccc(C(C)(F)F)cc1F` [I-303, 2-[4-(1,1-difluoroethyl)-2-fluorophenoxy]-4′-methyl-3,3′-bipyridine] were, in that order, ≤ 0.1 µg/mL and ≤ 0.1 µg/mL.
The like results for `COc1ncc(F)cc1-c1cccnc1Oc1ccc(C(F)(F)F)nc1` [I-32, 5-fluoro-2-methoxy-2′-{[6-(trifluoromethyl)pyridin-3-yl]oxy}-3,3′-bipyridine] were, in that order, ≤ 0.1 µg/mL and 0.2 to 0.78 µg/mL (≈ 0.548 to 2.14 µM).
Consider `CCC(=O)OCCc1ccc(Oc2ncccc2-c2cnccc2OC)cc1` [I-278, 4-{[4′-methoxy-3,3′-bipyridin)-2-yl]oxy}phenethyl propionate], for which the MIC in assay [1] and in assay [2] was 0.2 to 0.78 µg/mL (≈ 0.529 to 2.06 µM) in each case.
Consider `COc1ccccc1-c1cccnc1Oc1ccc(C(F)(F)F)nc1` [I-1, 3-(2-methoxyphenyl)-2-{[6-(trifluoromethyl)pyridin-3-yl]oxy}pyridine], for which the MIC in assay [1] and in assay [2] was ≤ 0.1 µg/mL each time.
With `FC(F)(F)c1ccc(Oc2ncccc2-c2cccc3cc(Cl)nn23)cn1` [I-375, 2-chloro-7-(2-{[6-(trifluoromethyl)pyridin-3-yl]oxy}pyridin-3-yl)pyrazolo[1,5-a]pyridine], the MIC in assay [1] and in assay [2] was ≤ 0.1 µg/mL in each case.
Regarding `COc1cc(-c2cccnc2Oc2ccc(C(F)F)nc2)ccc1F` [I-75, 2-{[6-(difluoromethyl)pyridin-3-yl]oxy}-3-(4-fluoro-3-methoxyphenyl)pyridine], the MIC in assay [1] and in assay [2] was ≤ 0.1 µg/mL in each case.
On to `COC(=O)N(C)CC(F)(F)c1ccc(Oc2ncccc2-c2ccccc2OC)cn1` [I-152, methyl [2,2-difluoro-2-(5-{[3-(2-methoxyphenyl)pyridin-2-yl]oxy}pyridin-2-yl)ethyl](methyl)carbamate], for which the MIC in assay [1] and in assay [2] was 0.2 to 0.78 µg/mL (≈ 0.466 to 1.82 µM) throughout.
Regarding `COCC(F)(F)c1ccc(Oc2ncccc2-c2cc(F)ccc2OC)cn1` [I-162, 2-{[6-(1,1-difluoro-2-methoxyethyl)pyridin-3-yl]oxy}-3-(5-fluoro-2-methoxyphenyl)pyridine], the MIC in assay [1] and in assay [2] was ≤ 0.1 µg/mL throughout.
`COc1cnccc1-c1cccnc1Oc1ccc(C(C)(F)F)nc1` [I-89, 2-{[6-(1,1-difluoroethyl)pyridin-3-yl]oxy}-3′-methoxy-3,4′-bipyridine]: the MIC in assay [1] and in assay [2] was 0.2 to 0.78 µg/mL (≈ 0.583 to 2.27 µM) throughout.
For `COc1cc(-c2cncnc2Oc2ccc(C(F)F)nc2)c(F)cc1F` [I-363, 5-(2,4-difluoro-5-methoxyphenyl)-4-{[6-(difluoromethyl)pyridin-3-yl]oxy}pyrimidine], the MIC in assay [1] and in assay [2] was ≤ 0.1 µg/mL each time.
Take `COc1cccc(-c2cccnc2Oc2ccc(C(F)(F)F)cc2)n1` [I-213, 6-methoxy-2′-[4-(trifluoromethyl)phenoxy]-2,3′-bipyridine]: the MIC in assay [1] and in assay [2] was ≤ 0.1 µg/mL throughout.
On to `FC(F)(F)c1ccc(Oc2ncccc2-c2cccn3ccnc23)cc1` [I-229, 8-{2-[4-(trifluoromethyl)phenoxy]pyridin-3-yl}imidazo[1,2-a]pyridine], for which the results for the MIC in assay [1] and in assay [2] were 1.56 to 6.25 µg/mL (≈ 4.39 to 17.6 µM) and 0.2 to 0.78 µg/mL (≈ 0.563 to 2.2 µM), respectively.
In the same order, the values of `Fc1cccc(-c2cccnc2Oc2ccc(C(F)(F)F)nc2)c1F` [I-9, 3-(2,3-difluorophenyl)-2-{[6-(trifluoromethyl)pyridin-3-yl]oxy}pyridine] are ≤ 0.1 µg/mL and 0.2 to 0.78 µg/mL (≈ 0.568 to 2.21 µM).
The like results for `Cc1ncccc1-c1cccnc1Oc1ccc(C(F)(F)F)nc1` [I-24, 2-methyl-2′-{[6-(trifluoromethyl)pyridin-3-yl]oxy}-3,3′-bipyridine] were, in that order, 1.56 to 6.25 µg/mL (≈ 4.71 to 18.9 µM) and 1.56 to 6.25 µg/mL (≈ 4.71 to 18.9 µM).
`COc1ccccc1-c1cccnc1Oc1cnc2c(c1)CCC=C2` [I-144, 3-{[3-(2-methoxyphenyl)pyridin-2-yl]oxy}-5,6-dihydroquinoline]: the MIC in assay [1] and in assay [2] was ≤ 0.1 µg/mL throughout.
In the case of `FC(F)c1ccc(Oc2ncncc2-c2cccc3ccnn23)cc1` [I-358, 7-{4-[4-(difluoromethyl)phenoxy]pyrimidin-5-yl)pyrazolo[1,5-a]-pyridine], the minimal inhibitory concentration (MIC) in assay [1] and in assay [2] was ≤ 0.1 µg/mL in each case.
Take `CCOc1ncc(Oc2ncccc2-c2ccc(F)cc2OC)cn1` [I-187, 2-ethoxy-5-{[3-(4-fluoro-2-methoxyphenyl)pyridin-2-yl]oxy}pyrimidine]: the MIC in assay [1] and in assay [2] was 1.56 to 6.25 µg/mL (≈ 4.57 to 18.3 µM) throughout.
For the molecule `FC1(F)Oc2cccc(-c3cccnc3Oc3ccc(C(F)(F)F)nc3)c2O1` [I-39, 3-(2,2-difluorobenzo[1,3]dioxol-4-yl)-2-{[6-(trifluoromethyl)pyridin-3-yl]oxy}pyridine], the values for the MIC in assay [1] and in assay [2] were 0.2 to 0.78 µg/mL (≈ 0.505 to 1.97 µM) and ≤ 0.1 µg/mL, respectively.
In the same order, the values of `CCOCCc1ccc(Oc2ncccc2-c2cccnc2OC)cc1` [I-396, 2-[4-(2-ethoxyethyl)phenoxy]2′-methoxy-3,3′-bipyridine] are ≤ 0.1 µg/mL and ≤ 0.1 µg/mL.
The like results for `COc1ccccc1-c1cccnc1Oc1ccc(C2CC2)nc1` [I-128, 2-[(6-cyclopropylpyridin-3-yl)oxy]-3-(2-methoxyphenyl)pyridine] were, in that order, ≤ 0.1 µg/mL and ≤ 0.1 µg/mL.
On to `COc1cccc(-c2cccnc2Oc2ccc(Cl)cc2)c1` [I-200, 2-(4-chlorophenoxy)-3-(3-methoxyphenyl)pyridine], for which the minimal inhibitory concentration (MIC) in assay [1] and in assay [2] was ≤ 0.1 µg/mL each time.
As to `Fc1ccc(F)c(-c2cccnc2Oc2ccc(C(F)(F)F)nc2)c1` [I-7, 3-(2,5-difluorophenyl)-2-{[6-(trifluoromethyl)pyridin-3-yl]oxy}pyridine], the MIC in assay [1] and in assay [2] was ≤ 0.1 µg/mL in each case.
`FC(F)(F)c1ccc(Oc2ncccc2-c2ccnc3cccnc23)cc1` [I-226, 4-{2-[4-(trifluoromethyl)phenoxy]pyridin-3-yl}-1,5-naphthyridine]: the minimal inhibitory concentration (MIC) in assay [1] and in assay [2] was ≤ 0.1 µg/mL each time.
Take `Cc1cc(Oc2ncccc2-c2cccc3c2OCC3)cnc1C(F)(F)F` [I-448]: the MIC in assay [1] and in assay [2] was ≤ 0.1 µg/mL each time.
